One assay has as its system sIgG+CD45R+ B-cells. The experiment in a line: IgG secretion by in vitro cultivated pools of sIgG+CD45R+ B-cells (sheep IgG ELISA of supernatants). In kind it is cell-based. The settings on record: for number of IgG-containing wells compared with basal medium: basal medium supplemented with the factor. The text has this:
(§1) To exemplify the current invention PBMCs were isolated from sheep immunized with a KLH-conjugated hapten and underwent positive panning using the biotinylated hapten and magnetic streptavidin beads to enrich antigen-specific B-cells. Subsequently, B-cells were stained for both surface IgG (sIgG) and the B-cell marker CD45R or CD21. Pools of 50 cells (sIgG^+CD45R^+ or sIgG^+CD21^+) were sorted into 96-well plates using a BD FACS Aria cell sorter. Cells were cultivated in medium supplemented with different factors in order to identify a medium composition that promotes the proliferation of the B-cells as well as the differentiation to IgG secreting cells (i.e. plasma cells)
(§2) In all experiment the basal medium was supplemented with 10% FCS, SAC and sheep TSN. Cells were cultivated in the presence of EL4B5 feeder cells.
Pools of 50 cells/well of antigen-enriched sIgG^+CD45R^+ B-cells were cultivated in the different media in a 96-well plate in the presence of EL4B5 feeder cells. After one week of cultivation the sheep IgG concentration of the supernatants was analyzed using a sheep IgG ELISA. The results for IMDM as basal medium are presented in FIG. 1 and for DMEM and IMDM as basal medium in the following Table.
(§3) For a more detailed analysis 4 categories of wells were defined: Wells with no IgG producing cells (IgG concentration below limit of detection, i.e. <10 ng/ml), wells with low IgG concentrations (10-50 ng/ml), wells with an average IgG concentration (50-200 ng/ml) and wells with a high IgG concentration (200-400 ng/ml).
(§4) Suffolk-Merino sheep were immunized several times using a KLH-coupled hapten as immunogen (500 μg dose formulated in an adjuvant). Five days before isolation of B-cells sheep were boosted by a subcutaneous application of the immunogen (500 μg dose per animal formulated in an adjuvant). For isolation of B-cells approx. 150 ml EDTA-blood was taken from the animals and mixed with an equal volume of PBS. The diluted blood was loaded on Leucosep™ tubes (Greiner Bio-One, Frickenhausen, Germany) (20 ml per tube) and centrifuged for 15 min. at 800×g at room temperature. After centrifugation the PBMCs (peripheral blood mononuclear cells) were collected, washed with PBS and counted using a counting chamber.
Following washing with PBS the PBMCs were resuspended in FACS Buffer (PBS/1% BSA) at 5×10^7 cells/ml. For positive panning of antigen-specific B-cells, the cells were labeled by incubation with the biotinylated hapten (500 ng/ml) for 30 min. at 4° C. under gentle rotation. Subsequently cells were washed with PBS and resuspended in Labeling Buffer (PBS/2 mM EDTA) at 1×10^7 cells per 90 μl. Cells were incubated with magnetic streptavidin microbeads (Miltenyi Biotec, Bergisch-Gladbach, Germany) for 30 min. at 4° C. under gentle rotation (using 10 μl of the beads per 90 μl of cell suspension). After washing with PBS cells were resuspended in MACS Buffer (PBS/1% BSA/2 mM EDTA) at 2×10^8 cells/ml and loaded on MACS column (Miltenyi Biotec) equilibrated with MACS buffer. Following washing with MACS buffer the magnet was removed from the column and labeled, antigen-specific cells were eluted in MACS buffer.
For staining of B-cells the eluted cell fraction was washed with PBS and resuspended in FACS Buffer at 2×10^7 cells/ml. […]

For the next assay, the system named is sIgG+CD21+ B-cells. The experiment in a line: IgG secretion by in vitro cultivated pools of sIgG+CD21+ B-cells (sheep IgG ELISA of supernatants). Type of assay: cell-based.
Description: as §1, §2
Pools of 50 cells/well of antigen-enriched sIgG^+CD21^+ B-cells were cultivated in the indicated medium in a 96-well plate in the presence of EL4B5 feeder cells. After one week of cultivation the sheep IgG concentration of the supernatants was analyzed using a sheep IgG ELISA. The results for IMDM as basal medium are presented in FIG. 2 and for DMEM and IMDM as basal medium in the following Table.
as §3, §4
Following washing with PBS the PBMCs were resuspended in FACS Buffer (PBS/1% BSA) at 5×10^7 cells/ml. For positive panning of antigen-specific B-cells, the cells were labeled by incubation with the biotinylated hapten (500 ng/ml) for 30 min. at 4° C. under gentle rotation. Subsequently cells were washed with PBS and resuspended in Labeling Buffer (PBS/2 mM EDTA) at 1×10^7 cells per 90 μl. […]
(In general: ELISA stands for enzyme-linked immunosorbent assay.)

Assay [1] concerns single sIgG+CD21+ B-cells. The assay can be described thus: Sorting and cultivation of single sIgG+CD21+ B-cells, IgG concentration of supernatant by ELISA. Type of assay: cell-based, sheep. Conditions: for % IgG positive wells: % of total wells. The text has this: PBMCs were isolated from sheep immunized with a KLH-conjugated hapten, underwent positive panning for enrichment of antigen-specific B-cells and were stained for both sheep sIgG and CD21. Single cells were sorted in 96-well plates using a BD FACS Aria cell sorter. Cells were cultivated in IMDM supplemented with 10% FCS, SAC, sheep TSN and PMA. Cells were cultivated in the presence of EL4B5 feeder cells. After one week of cultivation, the IgG concentration of the supernatant of the cells was analyzed by ELISA.
This experiment was performed again. PBMCs were isolated from sheep immunized with another KLH-conjugated hapten, underwent positive panning for enrichment of antigen-specific B-cells and were stained for both sheep sIgG and CD21. Double-positive single cells were sorted in 96-well plates using a BD FACS Aria cell sorter. Cells were cultivated in IMDM supplemented with 10% FCS, SAC, sheep TSN and PMA in the presence of EL4B5 feeder cells.
In control experiments single cells were cultivated using the same cultivation conditions in the absence of PMA. After one week of cultivation, the IgG concentration of the cell supernatants was analyzed by ELISA. After one week of cultivation in the presence of PMA a total of approx. 16% of total wells contained IgG-secreting B-cell clones. In turn, 35% of the wells with IgG-secreting clones contained a low IgG concentration, 35% contained an average IgG concentration and 30% contained a high IgG concentration. In the absence of PMA none of the wells contained IgG-secreting B-cell clones.
Sheep PBMCs from immunized animals were isolated as described above. Antigen-specific B-cells were enriched by positive panning using the biotinylated antigen and magnetic streptavidin microbeads (Miltenyi Biotec) as described above. Cells were stained using a 1:50 diluted FITC-labeled anti-sheep IgG monoclonal antibody (Clone GT-34) (Sigma-Aldrich) in combination with a 1:10 diluted RPE-labeled anti-sheep CD21 mAb (AbD Serotec). Cells were incubated with the mAbs for 45 min. at 4° C. under gentle rotation. In control experiments aliquots of the cells were stained with the individual mAbs alone (single staining). Unstained cells served as negative control.
After washing with PBS cells were resuspended in FACS buffer and subjected to cell sorting using a FACS Aria I cell sorter (BD Biosciences). Single sIgG^+CD21^+ double positive B-cells were identified and sorted into a 96-well plate (one cell/well) containing 280 μl medium and γ-irradiated murine EL4B5 feeder cells (approx. 5×10^4 feeder cells/well seeded 24 hours before cell sorting into the plates).
The medium for cultivation of single ovine B-cells was IMDM (Gibco) was supplemented with 10% FCS (Hyclone), L-Penicillin-Streptomycin-Glutamine (1×) (Gibco), 55 μM 2-Mercaptoethanol (Gibco), 0.025% Pluronic F-68 (Gibco), sheep TSN (1:20 dilution), SAC (1:10,000 dilution) (Calbiochem) and 1 μg/ml PMA (Sigma-Aldrich).
B-cells were incubated for 7 to 10 days in the medium at 37° C./5% CO2 in a humidified atmosphere. Subsequently the supernatant of the cells was harvested and the IgG concentration was determined by ELISA as described below
A biotin-conjugated monoclonal anti-sheep IgG antibody (cat. #213-062-177, Dianova, Hamburg, Germany) was immobilized on a streptavidin coated 96-well plate (MicroCoat, Bernried, Germany). The mAb (100 μl/well) was used at a concentration of 300 ng/ml in PBS/1% RPLA4 (bovine plasma albumin) (Roche Diagnostics GmbH, Mannheim, Germany) and wells were incubated for 1 hour at room temperature (RT) with the diluted mAb. After washing with Wash Buffer (0.9% NaCl/0.05% Tween) the supernatants of the in vitro cultivated B-cells or serial dilutions of purified polyclonal sheep IgG (Roche) were added to the plates and incubated for 1 h at RT. After washing with Wash Buffer wells were incubated with a donkey anti-sheep IgG (H+L) antibody (1:15,000 dilution in PBS/1% RPLA4) labeled with horseradish peroxidase (Dianova, cat. #713-035-147). […]

Assay [2] has as its system single sIgG+CD21+ B-cells. The assay can be described thus: Antigen-specificity of IgG secreted by single-cell B-cell clones (antigen-specific ELISA). In kind it is cell-based, sheep. Conditions: for % wells with antigen-specific IgG: % of IgG-secreting clones. The procedure: The specificity of the secreted antibodies was analyzed using an antigen-specific ELISA (data not shown).
Additionally, the specificity of the secreted antibodies was analyzed using an antigen-specific ELISA (data not shown).
Biotin-conjugated antigens were immobilized on a streptavidin coated 96-well plate (MicroCoat, Bernried, Germany). The biotinylated antigens (100 μl/well) were used at a concentration of 100-300 ng/ml in PBS/1% RPLA4 (bovine plasma albumin) (Roche Diagnostics GmbH, Mannheim, Germany) and wells were incubated with the diluted antigens for 1 hour at room temperature (RT). After washing with Wash Buffer (0.9% NaCl/0.05% Tween) the supernatants of the in vitro cultivated B-cells or serial dilutions of purified polyclonal sheep IgG (Roche) were added to the plates and incubated for 1 hour at RT. After washing with Wash Buffer wells were incubated with a donkey anti-sheep IgG (H+L) antibody (1:15,000 dilution in PBS/1% RPLA4) labeled with horseradish peroxidase (Dianova, cat. #713-035-147). After incubation for 1 hour at RT the plates were washed with Wash Buffer and signals were detected using ABTS solution (Roche Diagnostics GmbH, Mannheim, Germany) as substrate.

Where [3] appears, read: first experiment, % of wells with IgG-secreting clones.
Setting [4] is: second experiment, listed as with PMA.
Setting [5] is: second experiment, % of wells with IgG-secreting clones.
[6] abbreviates: second experiment, % of wells with IgG-secreting clones, listed as with PMA.

The values below come from patent US11560420B2, “Method for producing antibodies using ovine B-cells and uses thereof” (Roche Diagnostics Operations, Inc., priority 2013, dated 2023).

As for `CCCCCCCCCCCCCC(=O)O[C@@H]1[C@@H](C)[C@@]2(O)[C@@H](C=C(CO)C[C@]3(O)C(=O)C(C)=C[C@@H]23)[C@@H]2C(C)(C)[C@]12OC(C)=O` [PMA, Phorbol 12-Myristate-13-Acetate], the “wells containing significant concentrations of IgG (>50 ng/ml)” value with sIgG+CD45R+ B-cells (DMEM basal medium (10% FCS, SAC, sheep TSN)) is listed as 64%. The “wells with an average IgG concentration (50-200 ng/ml)” value in the assay with sIgG+CD45R+ B-cells (IMDM as basal medium) came to 100%. The “wells containing significant concentrations of IgG (>50 ng/ml)” value in the assay on sIgG+CD45R+ B-cells (IMDM basal medium (10% FCS, SAC, sheep TSN)) is recorded as 100%. In the assay on sIgG+CD21+ B-cells (IMDM as basal medium), the “wells with a high IgG concentration (200-400 ng/ml)” value was “approx. 50%” and the “wells with an average IgG concentration (50-200 ng/ml)” value was “approx. 40%”. The “wells containing significant levels of IgG (>50 ng/ml)” value in the assay with sIgG+CD21+ B-cells (addition to the basal medium) is recorded as “approx. 90%”. In addition, in assay [1] (setting [3]), the “wells with IgG-secreting clones containing a high IgG concentration (200-400 ng/ml)” value amounted to 14%, the “wells with IgG-secreting clones containing a low IgG concentration (10-50 ng/ml)” value was found to be 62% and the “wells with IgG-secreting clones containing an average IgG concentration (50-200 ng/ml)” value was found to be 24%. In addition, in assay [1] (first experiment, single cells, IMDM with 10% FCS, SAC, sheep TSN and PMA, EL4B5 feeder cells, one week), the “total wells containing IgG-secreting B-cell clones” value is given as 33%. In addition, in assay [1] (second experiment), the “wells with high IgG conc. (number)” value was 20, the “wells with low IgG conc. (number)” value was 23, the “wells with medium IgG conc. (number)” value turned out to be 23 and the “% IgG positive wells” value is given as “approx. 16%”. For the same molecule, in assay [1] (second experiment (another KLH-conjugated hapten), single cells, one week), the “No. IgG positive wells” value was found to be 66. In addition, in assay [1] (setting [4]), the “% IgG positive wells” value is listed as 15.7%. In assay [1] (setting [5]), the “wells with high IgG conc. (%)” value is given as 30%, the “wells with low IgG conc. (%)” value is 35% and the “wells with medium IgG conc. (%)” value stood at 35%. In assay [1] (setting [6]), the “wells with high IgG conc. (%)” value was found to be 30.3%, the “wells with low IgG conc. (%)” value is 34.8% and the “wells with medium IgG conc. (%)” value turned out to be 34.8%. In addition, the “IgG-secreting clones producing antigen-specific antibodies” value in assay [2] (first experiment, % of total IgG-secreting clones) amounted to 38%. Further, in assay [2] (second experiment), the “No. wells with antigen-specific IgG” value was found to be 19 and the “% wells with antigen-specific IgG” value was 29%. Besides, the “% wells with antigen-specific IgG” value in assay [2] (setting [4]) stood at 28.8%.

On to “IL-6: human IL-6 (Roche Diagnostics GmbH), 50 ng/ml added to the basal medium”, for which the “number of IgG-containing wells compared with basal medium” value in the assay with sIgG+CD45R+ B-cells is recorded as “increase”.

B1: IL-4: human IL-4 (Peprotech), 10 ng/ml added to the basal medium (protein, UniProt P05112 25-153, looked up)
Interleukin-4: HKCDITLQEIIKTLNSLTEQKTLCTELTVTDIFAASKNTTEKETFCRAATVLRQFYSHHEKDTRCLGATAQQFHRHKQLIRFLKRLDRNLWGLAGLNSCPVKEANQSTLENFLERLKTIMREKYSKCSS
On to B1, for which the “number of IgG-containing wells compared with basal medium” value with sIgG+CD45R+ B-cells and with sIgG+CD21+ B-cells (basal medium supplemented with the factor) was “increase” in each case.
